Measurements: patent US20250074891A1 (Anaxis Pharma Pty Ltd., priority 2021, published 2025)
Where two headings read alike, the source gives them in different places.

Assays:
MLKL (full length) = MLKL (full length) (Homo sapiens (Human), UniProt Q8NB16); assay: KINOMEscan binding assay, MLKL (full length); conditions: Table 36
Protocol: Kinase assays. For most assays, kinase-tagged T7 phage strains were grown in parallel in 24-well blocks in an E. coli host derived from the BL21 strain. E. coli were grown to log-phase and infected with T7 phage from a frozen stock (multiplicity of infection=0.4) and incubated with shaking at 32° C. until lysis (90-150 minutes).
The Hill Slope was set to −1.

[1] = tested on: U937 human histiocytic leukemia cell line; assay: Cellular assay: inhibition of TSQ induced necroptosis (CellTitre-Glo); conditions: U937 cells, TSQ cocktail, 48 hours, Table 38, read-out: Inhibition of TSQ-induced necroptosis (IC50 cell-based assay)
Summary of the method: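 U937 cells (20,000/well) pre-dosed with compound (10-point, 1:3 from 36 μM, 0.3% DMSO), then TSQ (hTNF-Fc 100 ng/ml, Smac mimetic 500 nM, Q-VD-OPh 10 μM) for 48 h at 37 °C. Viability by CellTiter-Glo luminescence, normalised to DMSO (100%) and DMSO+TSQ (0%); IC50 from 4-parameter fit.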

U937 cells = assay: Counter screen: cell viability without TSQ cocktail (off-target effect); set-up: species or system human
Protocol: Counter screen: In parallel, all compounds were tested for their ability to affect cell viability. The same U937 cells were treated with compound in DMSO without the TSQ cocktail. This counter screen enabled evaluation of off-target effects. In this case, cell viability was measured by CelltiterGlo.

endogenous MLKL in U937 = endogenous MLKL in U937 (Homo sapiens (Human), UniProt Q8NB16); assay: Degradation assay: degradation of endogenous MLKL in human cells (Western blot); conditions: 24 h incubation, read-out: Degradation of endogenous MLKL in U937 (DC50 cell-based assay in μM)
Chain of endogenous MLKL in U937 (Q8NB16 whole entry): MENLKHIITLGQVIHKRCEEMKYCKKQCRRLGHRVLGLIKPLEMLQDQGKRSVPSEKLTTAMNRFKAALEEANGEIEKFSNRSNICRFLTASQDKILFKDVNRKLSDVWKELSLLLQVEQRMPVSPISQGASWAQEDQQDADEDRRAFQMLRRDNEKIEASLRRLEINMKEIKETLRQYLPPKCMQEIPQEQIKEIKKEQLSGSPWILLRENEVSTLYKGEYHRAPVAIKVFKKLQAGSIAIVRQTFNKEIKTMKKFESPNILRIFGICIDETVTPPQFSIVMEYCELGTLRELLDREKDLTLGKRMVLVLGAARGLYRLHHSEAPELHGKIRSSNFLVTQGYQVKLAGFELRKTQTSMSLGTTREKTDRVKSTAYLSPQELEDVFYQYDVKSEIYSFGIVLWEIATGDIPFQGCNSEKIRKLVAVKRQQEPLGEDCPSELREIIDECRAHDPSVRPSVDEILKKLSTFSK
Protocol: DEGRADATION ASSAY: Screening Compounds Procedure to Evaluate the Activity of Compounds in Degrading Endogenous MLKL in Human Cell
The human monocyte cell line (U937) was seeded on the day of the experiment in a 24-well plate at a cell density of 5*10^5 cells per well in a volume of 0.5 mL per well.
The compound was diluted in DMSO with a starting concentration of 10 mM and titrated stepwise with a dilution of 1:5. 0.5 μL of the compound dilution was added to the appropriate well to achieve a final concentration of 10; 2; 0.4; 0.08 and 0.016 μM. A DMSO only well was included as control.
The cells were incubated for 24 h in the presence of the compound at 37° C. and 10% CO2.
After the 24 h incubation period, the medium was removed and cells washed with 0.5 mL PBS. The cells were then lysed directly in 60 μL of 1×SDS gel loading buffer.
The cell lysate was heat-denatured at […] for 10 min. 10 μL of lysate per well were run on 18-well 4-15% Criterion TGX stain free gels (BIO-RAD). The proteins were then transferred onto nitrocellulose membrane with a wet transfer protocol in the Criterion Blotter (BIO-RAD).
Membranes were blocked with 5% skim milk in TBST. Primary antibody against MLKL (clone 3H1, MABC604 Merck) was used at 1:2000 dilution in TBST with 1% BSA and left shaking over night at 4° C. After washes with TBST, the membranes were incubated with goat anti-rat IgG HRP-conjugated antibody (Southern Biotech) in 1% skim milk TBST at 1:10000 dilution for 1 h at room temperature. After TBST washes the bands were imaged on the ChemiDoc MP Imaging Systm (BIO-RAD) with Immobilion Western Chemiluminescent HRP Substrate Forte (Millipore). The loading control GAPDH was probed for with rabbit anti-GAPDH (CST 14C10) at 1:2000 dilution in 1% BSA TBST over night at 4° C. TBST washes were followed by incubation with goat anti-rabbit IgG HRP-conjugated antibody (Southern Biotech) in 1% skim milk TBST at 1:10000 dilution for 1 h at room temperature followed by TBST washes. The signal was detected as described above.
The band intensity was measured in the ImageLab Software (BIO-RAD) and the MLKL values adjusted for loading with GAPDH. The percentage of degradation was calculated by normalizing the compound treated values to the DMSO only control.

[2] = Homo sapiens, U-937, Table 38, read-out: Off-target effect (IC50 cell-based assay)

Chain of MLKL (full length) (Q8NB16 whole entry): as above

Row | Compound | Kd (MLKL (full length)) [nM] | IC50 [1] [nM] | IC50 (U937 cells; Table 38, read-out: Off-target effect (IC50 cell-based assay)) [nM] | DC50 (endogenous MLKL in U937) [µM] | IC50 ([1]; Homo sapiens, U-937) [nM] | IC50 (U937 cells; [2]) [nM]
1 | CCS(=O)(=O)Nc1ccc(-c2n[nH]c(Nc3ccc(C(=O)OCCCCC(=O)N[C@H](C(=O)N4CC(O)C[C@H]4C(=O)NCc4ccc(-c5scnc5C)cc4)C(C)(C)C)cn3)c2C(N)=O)cc1O[C@@H](C)c1ccc(F)cc1 (stereo in doubt) [Compound 1056, 4-{[(2S)-1-[(2S,4S)-4-hydroxy-2-({[4-(4-methyl-1,3-thiazol-5-yl)phenyl]methyl}carbamoyl)pyrrolidin-1-yl]-3,3-dimethyl-1-oxobutan-2-yl]carbamoyl}butyl 6-[(4-carbamoyl-3-{4-ethanesulfonamido-3-[(1S)-1-(4-fluorophenyl)ethoxy]phenyl}-1H-pyrazol-5-yl)amino]pyridine-3-carboxylate] | 10 to 1000 | < 1000 | > 10000 | < 1 |  | 
2 | CCS(=O)(=O)Nc1ccc(-c2n[nH]c(Nc3ccnc(OCCOCCOCCOCCOCCNC(=O)COc4cccc5c4C(=O)N(C4CCC(=O)NC4=O)C5=O)c3)c2C(N)=O)cc1 (stereo not shown) [Compound 1001, 5-[(2-{[14-(2-{[2-(2,6-dioxopiperidin-3-yl)-1,3-dioxo-2,3-dihydro-1H-isoindol-4-yl]oxy}acetamido)-3,6,9,12-tetraoxatetradecan-1-yl]oxy}pyridin-4-yl)amino]-3-(4-ethanesulfonamidophenyl)-1H-pyrazole-4-carboxamide] | < 10 |  |  | 1 to 10 | > 10000 | > 10000
3 | CCS(=O)(=O)Nc1ccc(-c2n[nH]c(Nc3ccnc(OCCOCCOCCOCCOCCOCCNC(=O)COc4cccc5c4C(=O)N(C4CCC(=O)NC4=O)C5=O)c3)c2C(N)=O)cc1 (stereo not shown) [Compound 1005, 5-[(2-{[17-(2-{[2-(2,6-dioxopiperidin-3-yl)-1,3-dioxo-2,3-dihydro-1H-isoindol-4-yl]oxy}acetamido)-3,6,9,12,15-pentaoxaheptadecan-1-yl]oxy}pyridin-4-yl)amino]-3-(4-ethanes-ulfonamidophenyl)-1H-pyrazole-4-carboxamide] | < 10 |  |  | 1 to 10 | > 10000 | > 10000
4 | CCS(=O)(=O)Nc1ccc(-c2n[nH]c(Nc3ccnc(OCCCCC(=O)N[C@H](C(=O)N4C[C@H](O)C[C@H]4C(=O)NCc4ccc(-c5scnc5C)cc4)C(C)(C)C)c3)c2C(N)=O)cc1 [Compound 1013, 3-(4-ethanesulfonamidophenyl)-5-{[2-(4-{[(2S)-1-[(2S,4R)-4-hydroxy-2-({[4-(4-methyl-1,3-thiazol-5-yl)phenyl]methyl}carbamoyl)pyrrolidin-1-yl]-3,3-dimethyl-1-oxobutan-2-yl]carbamoyl}butoxy)pyridin-4-yl]amino}-1H-pyrazole-4-carboxamide] | < 10 |  |  | 1 to 10 | 1000 to 10000 | > 10000
5 | Cc1ncsc1-c1ccc(CNC(=O)[C@@H]2C[C@@H](O)CN2C(=O)[C@@H](NC(=O)CCCCOc2cc(Nc3[nH]nc(-c4ccc(NS(=O)(=O)CC(F)(F)F)cc4)c3C(N)=O)ccn2)C(C)(C)C)cc1 [Compound 1016, 5-{[2-(4-{[(2S)-1-[(2S,4R)-4-hydroxy-2-({[4-(4-methyl-1,3-thiazol-5-yl)phenyl]methyl}carbamoyl)pyrrolidin-1-yl]-3,3-dimethyl-1-oxobutan-2-yl]carbamoyl}butoxy)pyridin-4-yl]amino}-3-[4-(2,2,2-trifluoroethanesulfonamido)phenyl]-1H-pyrazole-4-carboxamide] | < 10 |  |  | 1 to 10 | 1000 to 10000 | > 10000
6 | CCS(=O)(=O)Nc1ccc(-c2n[nH]c(Nc3ccc(OCCCCC(=O)N[C@H](C(=O)N4C[C@H](O)C[C@H]4C(=O)NCc4ccc(-c5scnc5C)cc4)C(C)(C)C)cn3)c2C(N)=O)cc1 [Compound 1019, 3-(4-ethanesulfonamidophenyl)-5-{[5-(4-{[(2S)-1-[(2S,4R)-4-hydroxy-2-({[4-(4-methyl-1,3-thiazol-5-yl)phenyl]methyl}carbamoyl)pyrrolidin-1-yl]-3,3-dimethyl-1-oxobutan-2-yl]carbamoyl}butoxy)pyridin-2-yl]amino}-1H-pyrazole-4-carboxamide] | < 10 |  |  | < 1 | < 1000 | > 10000
7 | Cc1ncsc1-c1ccc(CNC(=O)[C@@H]2C[C@@H](O)CN2C(=O)[C@@H](NC(=O)CCCCOc2ccc(Nc3[nH]nc(-c4ccc(NS(=O)(=O)CC(F)(F)F)cc4)c3C(N)=O)nc2)C(C)(C)C)cc1 [Compound 1020, 5-{[5-(4-{[(2S)-1-[(2S,4R)-4-hydroxy-2-({[4-(4-methyl-1,3-thiazol-5-yl)phenyl]methyl}carbamoyl)pyrrolidin-1-yl]-3,3-dimethyl-1-oxobutan-2-yl]carbamoyl}butoxy)pyridin-2-yl]amino}-3-[4-(2,2,2-trifluoroethanesulfonamido)phenyl]-1H-pyrazole-4-carboxamide] | < 10 |  |  | < 1 | < 1000 | > 10000
8 | Cc1ncsc1-c1ccc(CNC(=O)[C@@H]2C[C@@H](O)CN2C(=O)[C@@H](NC(=O)CCCCOc2ccc(Nc3[nH]nc(-c4ccc(NS(=O)(=O)C(F)F)cc4)c3C(N)=O)nc2)C(C)(C)C)cc1 [Compound 1021, 3-[4-(difluoromethanesulfonamido)phenyl]-5-{[5-(4-{[(2S)-1-[(2S,4R)-4-hydroxy-2-({[4-(4-methyl-1,3-thiazol-5-yl)phenyl]methyl}carbamoyl)pyrrolidin-1-yl]-3,3-dimethyl-1-oxobutan-2-yl]carbamoyl}butoxy)pyridin-2-yl]amino}-1H-pyrazole-4-carboxamide] | < 10 |  |  | 1 to 10 | < 1000 | > 10000
9 | CCS(=O)(=O)Nc1ccc(-c2n[nH]c(Nc3cnc(OCCCCC(=O)N[C@H](C(=O)N4C[C@H](O)C[C@H]4C(=O)NCc4ccc(-c5scnc5C)cc4)C(C)(C)C)cn3)c2C(N)=O)cc1OCc1ccc(F)cc1 [Compound 1023, 3-{4-ethanesulfonamido-3-[(4-fluorophenyl)methoxy]phenyl}-5-{[5-(4-{[(2S)-1-[(2S,4R)-4-hydroxy-2-({[4-(4-methyl-1,3-thiazol-5-yl)phenyl]methyl}carbamoyl)pyrrolidin-1-yl]-3,3-dimethyl-1-oxobutan-2-yl]carbamoyl}butoxy)pyrazin-2-yl]amino}-1H-pyrazole-4-carboxamide] | < 10 |  |  | < 1 | < 1000 | > 10000
10 | CCS(=O)(=O)Nc1ccc(-c2n[nH]c(Nc3ccc(OCCCCC(=O)N[C@H](C(=O)N4C[C@H](O)C[C@H]4C(=O)NCc4ccc(-c5scnc5C)cc4)C(C)(C)C)cn3)c2C(N)=O)cc1OCc1ccc(F)cc1 [Compound 1024, 3-{4-ethanesulfonamido-3-[(4-fluorophenyl)methoxy]phenyl}-5-{[5-(4-{[(2S)-1-[(2S,4R)-4-hydroxy-2-({[4-(4-methyl-1,3-thiazol-5-yl)phenyl]methyl}carbamoyl)pyrrolidin-1-yl]-3,3-dimethyl-1-oxobutan-2-yl]carbamoyl}butoxy)pyridin-2-yl]amino}-1H-pyrazole-4-carboxamide] | < 10 |  |  | < 1 | < 1000 | > 10000
